Results: patent US11723894B2, “Combination product for the treatment of neurological and/or psychiatric disorders” (Consejo Superior de Investigaciones Cientificas (CSIC), priority 2017, dated 2023)

System: Human SH-SY5Y dopaminergic cells
Test: 6-OHDA in vitro model of Parkinson's Disease, cell viability (MTT)
Type: cell-based
Details: tryptamine 1 μM 1 h, then 6-OHDA 30 μM 24 h
Source text: Example 9: DMT, DET, DPT and 5-MeO-DMT prevent dopaminergic cell death and inflammation (Only Measured for DMT) caused by the potent and selective dopaminergic toxin 6-OHDA in an in vitro model of Parkinson's Disease. These desired effects are preserved in the presence of the 5-HT2A antagonist Ritanserin (Rit). The Human SH-SY5Y dopaminergic cell line was obtained from Sigma-Aldrich, cultured in 96-well plates and propagated in RPMI medium containing glutamine (1%) and 15% of fetal bovine serum (FBS) plus antibiotic (gentamicin), under humidified 5% CO2 and 95% air. On attaining semiconfluence, separate groups of cells were treated with either: a) one of the four hallucinogenic tryptamines at 1 μM for 1 h, followed by 6-OHDA at 30 μM for 24 hours; or b) Rit at 1 μM for 1h, followed one of the four hallucinogenic tryptamines at 1 μM for an additional hour, at which point 6-OHDA was administered, also at 30 μM, and kept for 24 hours. Vehicle-treated cultures were used as controls. Cell cultures were then processed to assess cell viability (for all four tryptamines) and quantification of nitrite concentration (only performed in the DMT and DMT+Rit tests). Cell viability was measured using the MTT assay (Roche Diagnostic, GmbH), which is based on the ability of viable cells to reduce yellow MTT to blue formazan. After the aforementioned 24 h period in the presence of the different tryptamines or the respective tryptamine+Rit combinations, cells were incubated with MTT (0.5 mg/ml, 4 h) and subsequently solubilized in 10% SDS/0.01 M HCl for 12 h in the dark. The extent of MTT reduction was quantified by absorbance measurement at the 595 nm wavelength, as indicated in the instructions provided by the manufacturer. Nitrite quantification: Due to access to equipment problems at the time the experiments with DET, DPT and 5-MeO-DMT were conducted, the assessment of nitrite levels in the medium could only be done for the DMT experiments. These determinations were carried out as described in Example 8. Results from the cell viability tests are expressed as the percentage of viable dopaminergic cells measured. Results from nitrite determinations are expressed as actual concentrations (μM). Results from both techniques are presented in bar graphs.

`CN(C)CCc1c[nH]c2ccccc12` [DMT, N,N-dimethyltryptamine] was tested, and the “reduction in dopaminergic cell death in the presence of Ritanserin” value (Rit 1 μM 1 h) was “maintained” and the “percentage of viable dopaminergic neurons” value (vs 6-OHDA alone) was “significant increases”.
